Assay results reported in publication PMC6858927 (Investigational new drugs, 2019).
Like-named read-outs stand apart in the source and are kept apart here.

[1] = Cohort B Dose 2: 400mg, Decitabine (n=2), grade 3+
[2] = Cohort B dose 1: 200mg, Decitabine (n=6), Total
[3] = Cohort B dose 1: 200mg, Decitabine (n=6), grade 1&2
[4] = Cohort B dose 1: 200mg, Decitabine (n=6), grade 3+

C1=C/COCc2cc(ccc2OCCN2CCCC2)Nc2nccc(n2)-c2cccc(c2)COC/1 [Pacritinib, 11-(2-pyrrolidin-1-yl-ethoxy)-14,19-dioxa-5,7,26-triaza-tetracyclo[19.3.1.1(2,6). 1(8,12)]heptacosa-1(25),2(26),3,5,8,10,12(27),16,21,23-decaene]
3 (23.1): HYPERTENSION, patients (%) (Overall (n=13), Total)
11 (84.6): ANEMIA, patients (%) (Overall (n=13), Total)
5 (38.5): FATIGUE, patients (%) (Overall (n=13), Total) | ELECTROCARDIOGRAM QT CORRECTED INTERVAL PROLONGED, patients (%) (Overall (n=13), grade 1&2) | FATIGUE, patients (%) (Overall (n=13), grade 1&2)
6 (100): ANEMIA, patients (%) [2]
4 (30.8): DIARRHEA, patients (%) (Overall (n=13), Total) | HYPOKALEMIA, patients (%) (Overall (n=13), Total) | MUCOSITIS ORAL, patients (%) (Overall (n=13), Total) | DIARRHEA, patients (%) (Overall (n=13), grade 1&2)
6 (46.2): ELECTROCARDIOGRAM QT CORRECTED INTERVAL PROLONGED, patients (%) (Overall (n=13), Total)
1 (50): HYPOKALEMIA, patients (%) [1] | LYMPHOCYTE COUNT DECREASED, patients (%) [1] | NAUSEA, patients (%) [1] | NEUTROPHIL COUNT DECREASED, patients (%) [1] | PLATELET COUNT DECREASED, patients (%) [1] | WHITE BLOOD CELL DECREASED, patients (%) [1]
1 (16.7): ACTIVATED PARTIAL THROMBOPLASTIN TIME PROLONGED, patients (%) [2] | CONSTIPATION, patients (%) [2] | DIARRHEA, patients (%) [2] | EDEMA LIMBS, patients (%) [2] | FEBRILE NEUTROPENIA, patients (%) [2] | HYPERGLYCEMIA, patients (%) [2] | HYPOALBUMINEMIA, patients (%) [2] | HYPOPHOSPHATEMIA, patients (%) [2] | LUNG INFECTION, patients (%) [2] | PLEURAL EFFUSION, patients (%) [2] | RASH, patients (%) [2] | RESPIRATORY FAILURE, patients (%) [2] | ACTIVATED PARTIAL THROMBOPLASTIN TIME PROLONGED, patients (%) [3] | ANEMIA, patients (%) [3] | CONSTIPATION, patients (%) [3] | DIARRHEA, patients (%) [3] | EDEMA LIMBS, patients (%) [3] | ELECTROCARDIOGRAM QT CORRECTED INTERVAL PROLONGED, patients (%) [3] | HYPERGLYCEMIA, patients (%) [3] | HYPOALBUMINEMIA, patients (%) [3] | LYMPHOCYTE COUNT DECREASED, patients (%) [3] | MUCOSITIS ORAL, patients (%) [3] | PLEURAL EFFUSION, patients (%) [3] | RASH, patients (%) [3] | ELECTROCARDIOGRAM QT CORRECTED INTERVAL PROLONGED, patients (%) [4] | FEBRILE NEUTROPENIA, patients (%) [4] | HYPOPHOSPHATEMIA, patients (%) [4] | LUNG INFECTION, patients (%) [4] | MUCOSITIS ORAL, patients (%) [4] | RESPIRATORY FAILURE, patients (%) [4]
0: HYPERTENSION, patients (%) [1] | HYPOALBUMINEMIA, patients (%) [1] | HYPOPHOSPHATEMIA, patients (%) [1] | HYPOXIA, patients (%) [1] | LUNG INFECTION, patients (%) [1] | MUCOSITIS ORAL, patients (%) [1] | PLEURAL EFFUSION, patients (%) [1] | PRURITUS, patients (%) [1] | RASH MACULO-PAPULAR, patients (%) [1] | RASH, patients (%) [1] | RESPIRATORY FAILURE, patients (%) [1] | VOMITING, patients (%) [1] | DYSPNEA, patients (%) [2] | HYPERTENSION, patients (%) [2] | HYPOXIA, patients (%) [2] | PRURITUS, patients (%) [2] | RASH MACULO-PAPULAR, patients (%) [2] | DYSPNEA, patients (%) [3] | FEBRILE NEUTROPENIA, patients (%) [3] | HYPERTENSION, patients (%) [3] | HYPOPHOSPHATEMIA, patients (%) [3] | HYPOXIA, patients (%) [3] | LUNG INFECTION, patients (%) [3] | NEUTROPHIL COUNT DECREASED, patients (%) [3] | PLATELET COUNT DECREASED, patients (%) [3] | PRURITUS, patients (%) [3] | RASH MACULO-PAPULAR, patients (%) [3] | RESPIRATORY FAILURE, patients (%) [3] | WHITE BLOOD CELL DECREASED, patients (%) [3] | ACTIVATED PARTIAL THROMBOPLASTIN TIME PROLONGED, patients (%) [4] | ANOREXIA, patients (%) [4] | CONSTIPATION, patients (%) [4] | DIARRHEA, patients (%) [4] | DYSPNEA, patients (%) [4] | EDEMA LIMBS, patients (%) [4] | FATIGUE, patients (%) [4] | HYPERGLYCEMIA, patients (%) [4] | HYPERTENSION, patients (%) [4] | HYPOALBUMINEMIA, patients (%) [4] | HYPOKALEMIA, patients (%) [4] | HYPOXIA, patients (%) [4] | NAUSEA, patients (%) [4] | PLEURAL EFFUSION, patients (%) [4] | PRURITUS, patients (%) [4] | RASH MACULO-PAPULAR, patients (%) [4] | RASH, patients (%) [4] | VOMITING, patients (%) [4] | LUNG INFECTION, patients (%) (Overall (n=13), grade 1&2) | ACTIVATED PARTIAL THROMBOPLASTIN TIME PROLONGED, patients (%) (human, in vivo) | ANOREXIA, patients (%) (human, in vivo) | CONSTIPATION, patients (%) (human, in vivo) | DIARRHEA, patients (%) (human, in vivo) | DYSPNEA, patients (%) (human, in vivo) | EDEMA LIMBS, patients (%) (human, in vivo) | FATIGUE, patients (%) (human, in vivo)
5 (83.3): PLATELET COUNT DECREASED, patients (%) [2] | ANEMIA, patients (%) [4] | PLATELET COUNT DECREASED, patients (%) [4]
3 (50): LYMPHOCYTE COUNT DECREASED, patients (%) [2] | NAUSEA, patients (%) [2] | NEUTROPHIL COUNT DECREASED, patients (%) [2] | WHITE BLOOD CELL DECREASED, patients (%) [2] | NAUSEA, patients (%) [3] | NEUTROPHIL COUNT DECREASED, patients (%) [4] | WHITE BLOOD CELL DECREASED, patients (%) [4]
9 (69.2): ANEMIA, patients (%) (human, in vivo)
7 (53.8): LYMPHOCYTE COUNT DECREASED, patients (%) (Overall (n=13), Total) | NAUSEA, patients (%) (Overall (n=13), Total)
1 (7.7): ELECTROCARDIOGRAM QT CORRECTED INTERVAL PROLONGED, patients (%) (human, in vivo) | RASH MACULO-PAPULAR, patients (%) (human, in vivo)
2 (15.4): ACTIVATED PARTIAL THROMBOPLASTIN TIME PROLONGED, patients (%) (Overall (n=13), Total) | ANOREXIA, patients (%) (Overall (n=13), Total) | CONSTIPATION, patients (%) (Overall (n=13), Total) | DYSPNEA, patients (%) (Overall (n=13), Total) | EDEMA LIMBS, patients (%) (Overall (n=13), Total) | LUNG INFECTION, patients (%) (Overall (n=13), Total) | RASH MACULO-PAPULAR, patients (%) (Overall (n=13), Total) | ACTIVATED PARTIAL THROMBOPLASTIN TIME PROLONGED, patients (%) (Overall (n=13), grade 1&2) | ANEMIA, patients (%) (Overall (n=13), grade 1&2) | ANOREXIA, patients (%) (Overall (n=13), grade 1&2) | CONSTIPATION, patients (%) (Overall (n=13), grade 1&2) | DYSPNEA, patients (%) (Overall (n=13), grade 1&2) | EDEMA LIMBS, patients (%) (Overall (n=13), grade 1&2) | LUNG INFECTION, patients (%) (Overall (n=13), grade 3+)
2 (33.3): ANOREXIA, patients (%) [2] | ELECTROCARDIOGRAM QT CORRECTED INTERVAL PROLONGED, patients (%) [2] | FATIGUE, patients (%) [2] | HYPOKALEMIA, patients (%) [2] | MUCOSITIS ORAL, patients (%) [2] | VOMITING, patients (%) [2] | ANOREXIA, patients (%) [3] | FATIGUE, patients (%) [3] | HYPOKALEMIA, patients (%) [3] | VOMITING, patients (%) [3] | LYMPHOCYTE COUNT DECREASED, patients (%) [4]
